According to patent publication US20060264402A1, “Pest control formulation” (Redline, Inc., priority 2003, published 2006):

Test system: human skin
Assay: Parasthesia irritation screening: one-gram drop placed on human skin, Parasthesia Irritation Rating (PIR)
Assay type: in vivo
Set-up: key: 0 = no discomfort, 4 = slight, 8 = noticeable, 12 = severe
Description: 1. Different ratios of active ingredient to IDPP are prepared for evaluation.
2. A one-gram drop of the ratio is placed on human skin. Only one drop is evaluated within a 24-hour period.
3. Irritation or sensitivity values are assigned according to the following scale (“Parasthesia Irritation Rating” or “PIR”): • 12=Severe • 8 =Noticeable discomfort • 4 =Slight discomfort • 0=No discomfort
4. If irritation is severe or noticeable at any time within a 24-hour period, the skin is washed and 5% lidocaine solution is applied to lessen discomfort.

[1] = ratio active agent:IDPP 0.67:1.00, within 24-hour period

| Structure (SMILES) | Parasthesia Irritation Rating (ratio active agent:IDPP 0.18:1.00, within 24-hour period) | Parasthesia Irritation Rating (ratio active agent:IDPP 0.21:1.00, within 24-hour period) | Parasthesia Irritation Rating (ratio active agent:IDPP 0.25:1.00, within 24-hour period) | Parasthesia Irritation Rating (ratio active agent:IDPP 0.33:1.00, within 24-hour period) | Parasthesia Irritation Rating (ratio active agent:IDPP 0.43:1.00, within 24-hour period) | Parasthesia Irritation Rating [1] | Parasthesia Irritation Rating (active agent 1.00 without IDPP (—), within 24-hour period) | Parasthesia Irritation Rating (ratio active agent:IDPP 1.00:1.00, within 24-hour period) | Parasthesia Irritation Rating (ratio active agent:IDPP 1.50:1.00, within 24-hour period) |
| --- | --- | --- | --- | --- | --- | --- | --- | --- | --- |
| CC1(C)C(C=C(Cl)Cl)C1C(=O)OC(C#N)c1cccc(Oc2ccccc2)c1 (stereo not shown) [Cypermethrin] | 0.00 | 0.00 | 4.00 | 12.00 | 12.00 | 12.00 |  |  |  |
| CC(C)=CC1C(C(=O)OC(C#N)c2cccc(Oc3ccccc3)c2)C1(C)C (stereo not shown) [Cyphenothrin] |  |  |  |  |  | 0.00 | 12.00 | 0.00 | 4.00 |
